How the values were obtained:
[1] = tested on: MT5, KPC-Luc, Panc02, BXPC3, Capan-02 PDAC cell lines; test: cell viability assay (MTT) of PDAC cell lines; type: cell-based, mouse and human; conditions: 0-5 uM, 72 hours; FIG. 13E, 24a
Protocol: (§1) (FIG. 24A) Percentage viability of murine (MT5, KPC.Luc, Panc02) and human (Capan02, BxPC3) PDAC cell lines cultured in the presence of different concentrations ranging from 0-5 μM of ANT008 for 72 hours is plotted. Confirmation of CRISPR-Cas9 KO of VIPR2 encoding VPAC2 receptor via (FIG. 24B) western blot; (FIG. 24C) RT-PCR using primers targeting exon 9-12 downstream of targeted site and (FIG. 24D) Sanger Sequencing showing the validation of in-del mutation in exon 2. In vitro MTT assay showing (FIG. 24E) Proliferation of WT and KO cells over 72 hours; (FIG. 24F) Percent viability of wild type (WT) and VPAC2 KO (KO) Panc02 cells treated with ANT008 and ANT308 at 3 μM for 72 hours. (FIG. 24G) Tumor growth curve of WT versus KO Panc02 cells in C57BL/6 mice following subcutaneous tumor implantation. Values represent median tumor volume±95% confidence interval. (FIG. 24H) Kaplan-Meier survival plots corresponding to results in FIG. 24G. Median survival time for WT is 21 days and 28 days for VPAC2 KO. Error bars represent mean and standard deviation. *p<0.05, **p<0.01.
(§2) Cell viability assay. […] Cell viability was assessed using cell proliferation kit I from Roche (Basel, Switzerland), following the manufacturer's instructions. […] This was followed by incubation with solubilization buffer overnight and reading the absorbance at 570 nm. […]

[2] = tested on: orthotopic KPC-Luc tumors; test: orthotopic KPC-Luc pancreatic tumor model; type: in vivo, mouse; conditions: FIG. 21b
Text: KPC.Luc cells were orthotopically implanted in the tail of the pancreas of C57BL/6 mice and treated with ANT008 and/or anti-PD-1 with n=9, 10, 8 and 11 in scrambled+IgG, ANT008+IgG, scrambled+anti-PD-1 and ANT008+anti-PD-1, respectively. (FIG. 21A) Schematic showing orthotopic implantation of KPC.Luc cells and treatment strategy with ANT008 and/or anti-PD-1. (FIG. 21B) Waterfall plot showing % change in tumor flux on day 22 relative to day 7 prior to start of treatment. (FIG. 21C) Total flux as measured by IVIS bioluminescent imaging in the different treatment groups. Isoflurane was used for anesthesia for bioluminescent imaging. Median flux represented as dashed gray line (----). Cross symbol (+) represents mice that were euthanized before day 25 due to ulceration of the tumor and circle symbol (∘) represent mouse that were imaged on day 26 via MRI imaging shown in FIG. 30. (FIG. 21D) Bar graph showing weight of pancreas on day 25 when the mice were euthanized. ‘Star’ shaped (⋆) data points indicate tumor free mice and dotted horizontal line (----) represents the average weight of healthy pancreas from naïve mice. […] P values in FIG. 21D were calculated using student ANOVA followed by Dunnett's post hoc test (comparing each treatment group with Scram+IgG). […]

[3] = tested on: wild type and VPAC2 KO Panc02 cells; test: MTT viability of wild type and VPAC2 KO Panc02 cells; type: cell-based, mouse; conditions: 3 uM for 72 hours; FIG. 24f
Protocol: as §1, §2

[4] = tested on: intraocular melanoma; test: liver metastases in intraocular melanoma mouse model; type: in vivo

Sequence | viability and growth of PDAC cell lines in vitro [1] | mice in which tumors regressed, number of mice of group [2] | mice in which tumors regressed ([2]; tumor flux day 22 relative to day 7) [%] | in vitro growth of VPAC2 knockout or wild-type Panc02 cells [3] | growth of liver metastases ([4]; 3 weeks after tumor inoculation, N=6, FIG. 36) | size of intraocular melanoma ([4]; FIG. 38) | angiogenesis of liver metastases ([4]; N=10, FIG. 37) | hepatic metastases in 3 weeks ([4]; n=6, FIG. 34)
KPRRPYTDNYTRLRKQMAVKKYLNLILN [ANT008] | did not affect viability of PDAC cell lines in vitro, except a transient effect in MT5 | 4/10 | 40 | – | – | – | – | –
KPRRPYTSDYTRLRKQMAVKKYLNLILN [ANT308] | – | – | – | did not inhibit | suppressed growth | not affected | inhibited angiogenesis | decreased

From patent publication US20240247048A1 (EMORY UNIVERSITY, priority 2021, published 2024)
